One assay has as its target T1, human DP2 receptor (Homo sapiens, UniProt Q9Y5Y4).
T1 construct: expressed in transfected cells
T1 sequence (Q9Y5Y4 1-395): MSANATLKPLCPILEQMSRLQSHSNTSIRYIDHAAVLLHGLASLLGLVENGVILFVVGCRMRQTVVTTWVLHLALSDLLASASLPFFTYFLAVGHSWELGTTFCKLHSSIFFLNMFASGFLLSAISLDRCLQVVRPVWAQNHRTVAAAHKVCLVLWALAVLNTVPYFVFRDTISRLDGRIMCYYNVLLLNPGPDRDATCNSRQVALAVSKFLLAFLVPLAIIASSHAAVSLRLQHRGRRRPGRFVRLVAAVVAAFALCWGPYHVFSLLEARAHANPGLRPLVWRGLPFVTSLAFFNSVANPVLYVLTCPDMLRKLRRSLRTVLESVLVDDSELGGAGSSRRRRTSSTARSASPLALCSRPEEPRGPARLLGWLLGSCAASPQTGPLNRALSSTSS
The experiment in a line: DP2/CRTH2 binding assay ([3H]PGD2 radioligand). To be noted: membranes of HEK293 cells expressing recombinant human DP2, 1 nM [3H]PGD2; read-out: hDP2. The method in brief:
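HEK293 membranes with stable recombinant human DP2, incubated with 1 nM [3H]PGD2 and compound 60 min at room temperature in pH 7.4 HEPES/MnCl2/EDTA buffer, with or without 0.2% human serum albumin.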

In a further assay the target is T2, human DP1 receptor (Homo sapiens, UniProt Q13258).
T2 construct: tissue Biological Specialty Corporation; host or cells: human platelets, membrane preparation
T2 sequence (Q13258 1-359): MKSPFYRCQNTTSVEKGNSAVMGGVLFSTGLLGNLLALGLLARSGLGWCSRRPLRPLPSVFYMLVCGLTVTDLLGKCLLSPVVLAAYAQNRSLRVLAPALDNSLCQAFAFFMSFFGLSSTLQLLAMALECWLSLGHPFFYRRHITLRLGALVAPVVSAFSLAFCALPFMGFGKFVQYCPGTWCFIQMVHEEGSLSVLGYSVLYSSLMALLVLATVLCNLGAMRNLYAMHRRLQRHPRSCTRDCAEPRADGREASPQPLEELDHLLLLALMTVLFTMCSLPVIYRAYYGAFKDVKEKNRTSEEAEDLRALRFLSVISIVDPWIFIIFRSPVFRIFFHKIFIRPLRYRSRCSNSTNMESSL
The experiment in a line: DP1 binding assay ([3H]BWA868C radioligand). Conditions: human platelet membranes, 2 nM [3H]BWA868C; read-out: hDP1. As to the method: The ability of a compound to bind to the human DP1 receptor was evaluated via a radioligand membrane binding assay using the DP1 selective synthetic ligand [^3H]BWA868C. Packed human platelets (Biological Specialty Corporation), were resuspended in 6 volumes of Hepes/HBSS buffer (10 mM Hepes, 1 mM DTT in Hanks Balanced Salt Solution (HBSS), lysed and centrifuged at 75,000×g to pellet the membranes. Membranes were resuspended in Hepes/HBSS buffer to approximately 12 mg protein/ml. Membranes (20 μg protein/well) are incubated in 96-well plates with 2 nM [^3H]BWA868C and test compound in Assay Buffer (50 mM Hepes, 10 mM MnCl2, 1 mM EDTA, plus or minus 0.2% human serum albumin, pH 7.4) for 60 minutes at room temperature. The reactions are terminated by rapid filtration through Whatman GF/C glass fibre filter plates. The filter plates were pre-soaked in 0.33% polethylenimine for 30 minutes at room temperature then washed in Wash Buffer (50 mM Hepes, 0.5 M NaCl pH 7.4) prior to harvesting. After harvesting, the filter plates are washed 3 times with 1 ml cold Wash Buffer then dried. Scintillant is then added to the plates and the radioactivity retained on the filters is determined on a Packard TopCount (Perkin Elmer). Specific binding is determined as total radioactive binding minus non-specific binding in the presence of 10 μM BW A868C. IC50s were determined using GraphPad prism analysis of drug titration curves.

In the case of `COc1ccc(CC(=O)O)cc1Oc1ccc(NC(=O)c2ccc(Cl)cc2)cc1CSc1nnc(C)s1` [Compound 19, {3-[4-(4-Chloro-benzoylamino)-2-(5-methyl-[1,3,4]thiadiazol-2-ylsulfanylmethyl)-phenoxy]-4-methoxy-phenyl}-acetic acid], the IC50 was under 300 nM on human DP2 receptor and over 1000 nM at human DP1 receptor.
For `COc1ccc(CC(=O)O)cc1Oc1ccc(NC(=O)c2cccnc2)cc1CSCC(F)(F)F` [Compound 70, {4-methoxy-3-[4-[(pyridine-3-carbonyl)-amino]-2-(2,2,2-trifluoro-ethylsulfanylmethyl)-phenoxy]-phenyl}-acetic acid], the IC50 on human DP2 receptor was under 300 nM; on human DP1 receptor it was 300 to 1000 nM.
In the case of `COc1ccc(CC(=O)O)cc1Oc1ccc(NC(=O)c2ccc(Cl)cc2)cc1CSCC(F)(F)F` [Compound 1, {3-[4-(4-Chloro-benzoylamino)-2-(2,2,2-trifluoro-ethylsulfanylmethyl)-phenoxy]-4-methoxy-phenyl}-acetic acid], the IC50 on human DP2 receptor is under 300 nM; at human DP1 receptor, over 1000 nM.
In the same order, the values of `COc1ccc(CC(=O)O)cc1Oc1ccc(NC(=O)C(C)(C)C)cc1CS(=O)(=O)C(C)(C)C` [Compound 74, {3-[4-(2,2-Dimethyl-propionylamino)-2-(2-methyl-propane-2-sulfonylmethyl)-phenoxy]-4-methoxy-phenyl}-acetic acid] are under 300 nM and under 300 nM.
For the compound `COc1ccc(CC(=O)O)cc1Oc1ccc(NC(=O)c2ccc(Cl)cc2Cl)cc1CSC(C)(C)C` [Compound 65, {3-[2-tert-Butylsulfanylmethyl-4-(2,4-dichloro-benzoylamino)-phenoxy]-4-methoxy-phenyl}-acetic acid], the IC50 at human DP2 receptor and on human DP1 receptor was under 300 nM throughout.
As for `CC(C)(C)SCc1cc(NC(=O)C(C)(C)C)ccc1Oc1cc(CC(=O)O)ccc1O` [Compound 75, {3-[2-tert-Butylsulfanylmethyl-4-(2,2-dimethyl-propionylamino)-phenoxy]-4-hydroxy-phenyl}-acetic acid], the IC50 on human DP2 receptor and at human DP1 receptor was under 300 nM in each case.
With `COc1ccc(CC(=O)O)cc1Oc1ccc(NC(=O)C(C)(C)C)cc1CSC(C)(C)C` [Compound 7, {3-[2-tert-Butylsulfanylmethyl-4-(2,2-dimethyl-propionylamino)-phenoxy]-4-methoxy-phenyl}-acetic acid], the values for the IC50 on human DP2 receptor and at human DP1 receptor were under 300 nM and over 1000 nM, respectively.
With `COc1ccc(CC(=O)O)cc1Oc1ccc(NC(=O)c2ccc(Cl)cc2)cc1CSc1ccccc1` [Compound 17, {3-[4-(4-Chloro-benzoylamino)-2-phenylsulfanylmethyl-phenoxy]-4-methoxy-phenyl}-acetic acid], the values for the IC50 on human DP2 receptor and on human DP1 receptor were under 300 nM and over 1000 nM, respectively.

The record behind these values is patent US20110144160A1, “Antagonists of Prostaglandin D2 Receptors” (Amira Pharmaceuticals, Inc., priority 2008, published 2011).
